In one test the test system is HeLa cells. Nature of the test: cells. The test is classed as cell-based. The conditions noted are these: Homo sapiens, HeLa, read-out: IC50 Results (MTT). The method, then: III. MTT Cytotoxicity Assays. 24 hours post-transfection, siRNA transfected cells were seeded into 96-well plates at 3×10^3 cells/well. The cells were incubated for 16-24 hours. A range of concentrations of the indicated cytotoxic drugs was added and incubation was continued for an additional 48 hours. 20 μL of MTT (10 mg/mL) was added to each well and the plates were further incubated at 37° C. for 4 hours. The dye was solubilized with DMSO and absorbance measured at 570 nm using a multiwell plate reader (WALLAC). The results were expressed as the average of duplicate wells using the plate reader's Prism software (GraphPad).
Using the MTT cytotoxicity assay (as described in Example 3), the IC50 (i.e., the concentration at which 50% of the cells are still viable) of HeLa cells transfected with p16 siRNA for various chemotherapeutic agents was next assessed.

The test system of another test is MDA-MB-231 cells. Kind of test: Adriamycin sensitivity of MDA-MB-231 cells. The format is cell-based, human. The conditions noted are these: MDA-MB-231 parental line. The protocol:
The cells are allowed to attach to the plate overnight and then the media is replaced with media containing an different concentrations of ADR (0 nM, 10 nM, 20 nM, 50 nM, 100 nM, 400 nM, 500 nM, 1 μM, 5 μM, and 10 μM) and the cells are then incubated at 37° C. for 4 days. […] The colonies are the counted and the results expressed as the level of ADR resistance in nM (e.g., ≦400 nM), or EC50, in which 50% of the cells were still alive.

The next test relates to p16^INK4a protein. Kind of test: p16 induction after short-term adriamycin exposure (modified SITp16), MCF7 cells. The format is cell-based, human. The conditions noted are these: 50 nM adriamycin, 36 hour treatment (FIG. 9). The method, then: Finally, in a modification of the SITp16, an experiment was performed to determine if p16 expression was induced following a short-term exposure of adriamycin-sensitive cells to adriamycin. For these studies, MCF7 cells were treated 3 days with the EC50 amount of adriamycin (i.e., the effective concentration median or middle of a dose response curve -for MCF7 cells and adriamycin, this is 40 nM. (Note that EC50 is the effective concentration median or middle of a dose response curve, while IC50=inhibitory concentrations by 50%. Total cell lysates (i.e., extracts) were then prepared from these adriamycin-treated cells (called MCF7 EC50 Doxo), as well as from an equal number of MCF7 cells (drug sensitive), MCF7/AR (adriamycin-resistant cells), and OVCAR3 cells (an ovarian cancer cell line from a patient who was treated with adriamycin). The lysates were resolved by SDS-PAGE, transferred to a nitrocellulose membrane, and probed with p16^INK4a specific monoclonal antibody (α-p16^INK4a (Ab-4, Neomarkers clone 16P04, JC2 commercially available from Lab Vision, Freemont, Calif.).
Studies were next performed to determine if a short duration of exposure to adriamycin would cause upregulation of p16 expression in MCF7 cells. […]

A further test has as its system MCF7 cells. Nature of the test: Adriamycin sensitivity of MCF7 cells. The conditions noted are these: for EC50: Homo sapiens.

Molecules are shown by their SMILES. Read-outs that look alike come from different tables or passages of the source.

This note sets out measurements from US20060188507A1, “Methods for identifying chemotherapeutic resistance in non-hematopoietic tumors” (priority 2005, published 2006).

As usually defined, the IC50 is the point on the concentration scale where inhibition reaches its midpoint.

In the case of `COc1cccc2c1C(=O)c1c(O)c3c(c(O)c1C2=O)C[C@@](O)(C(=O)CO)C[C@@H]3O[C@H]1C[C@H](N)[C@H](O)[C@H](C)O1` [Doxorubicin, doxorubicin], the 50% inhibitory concentration (IC50) in the test on HeLa cells (HeLa cells transfected with GFP siRNA) came to 113 nM; in the test with HeLa cells (HeLa cells transfected with P16 siRNA (p16 siRNA I)) it was 70.4 nM. Besides, the entries for the “ADR concentration to which cell line is sensitive” value in the test with MDA-MB-231 cells and in the test with MCF7 cells (MCF7 parental line) were “approximately 200 nM” and “approximately 80 nM”, respectively. Further, the “upregulation of p16 expression after short exposure” value with p16^INK4a protein is recorded as “did not result in these cells' upregulation of p16 expression”. Also, the EC50 in the test on MCF7 cells (MCF7, read-out: EC50 (effective concentration median of dose response curve)) was determined as 40 nM; in the test with MCF7 cells (MCF7, read-out: concentration known to kill 50% of MCF7 drug-sensitive cells) it was 50 nM.
